# Assay results published in the NIST ThermoML archive (doi:10.1021/je7000254).
# Assay: xn = mol fraction of the nth substance listed
# Conditions: Fluid (supercritical or subcritical phases), Taylor-Aris chromatographic method, x1 = 0
Compound,"binary diffusion coefficient (313.16 K, 15000 kPa) [m2/s]","binary diffusion coefficient (313.16 K, 20000 kPa) [m2/s]","binary diffusion coefficient (313.16 K, 25000 kPa) [m2/s]","binary diffusion coefficient (313.16 K, 30000 kPa) [m2/s]","binary diffusion coefficient (313.16 K, 35000 kPa) [m2/s]","binary diffusion coefficient (323.16 K, 15000 kPa) [m2/s]","binary diffusion coefficient (323.16 K, 20000 kPa) [m2/s]","binary diffusion coefficient (323.16 K, 25000 kPa) [m2/s]","binary diffusion coefficient (323.16 K, 30000 kPa) [m2/s]","binary diffusion coefficient (323.16 K, 35000 kPa) [m2/s]","binary diffusion coefficient (333.16 K, 15000 kPa) [m2/s]","binary diffusion coefficient (333.16 K, 20000 kPa) [m2/s]","binary diffusion coefficient (333.16 K, 25000 kPa) [m2/s]","binary diffusion coefficient (333.16 K, 30000 kPa) [m2/s]","binary diffusion coefficient (333.16 K, 35000 kPa) [m2/s]"
"Cc1cc(C)cc(C)c1 [1,3,5-trimethylbenzene] + O=C=O",1.04e-08,9.15e-09,8.21e-09,7.78e-09,7.46e-09,1.19e-08,1.11e-08,9.33e-09,9.23e-09,8.6e-09,1.42e-08,1.23e-08,1.15e-08,1.04e-08,9.89e-09
Nc1ccccc1 [aniline] + O=C=O,1.02e-08,9.75e-09,9.06e-09,8.43e-09,7.76e-09,1.18e-08,1.08e-08,9.66e-09,9.1e-09,8.7e-09,1.33e-08,1.19e-08,1.1e-08,1.02e-08,9.47e-09
C=Cc1ccccc1 [styrene] + O=C=O,1.19e-08,1.08e-08,9.58e-09,8.74e-09,8.27e-09,1.32e-08,1.12e-08,1.06e-08,9.2e-09,8.77e-09,1.55e-08,1.41e-08,1.22e-08,1.09e-08,1.02e-08
